Data set [1] addresses T1, 5-HT2c binding site (Rattus norvegicus, UniProt P08909).
T1 construct: ability to displace [^3H]-mesulergine in the rat prefrontal cortex; from tissue; host or cells: rat prefrontal cortex membrane suspension
T1 sequence (P08909 33-460): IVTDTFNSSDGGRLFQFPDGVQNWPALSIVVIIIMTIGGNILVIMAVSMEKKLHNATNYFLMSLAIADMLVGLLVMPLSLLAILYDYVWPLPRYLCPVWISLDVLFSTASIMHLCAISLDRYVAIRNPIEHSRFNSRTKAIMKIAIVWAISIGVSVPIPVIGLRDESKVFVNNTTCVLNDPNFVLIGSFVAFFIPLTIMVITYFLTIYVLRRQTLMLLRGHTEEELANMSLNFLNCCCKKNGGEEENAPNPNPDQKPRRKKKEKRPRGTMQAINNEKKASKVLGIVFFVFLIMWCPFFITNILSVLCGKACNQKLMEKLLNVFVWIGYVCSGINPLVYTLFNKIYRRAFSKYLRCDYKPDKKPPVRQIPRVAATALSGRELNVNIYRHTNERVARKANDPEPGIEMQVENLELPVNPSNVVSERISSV
Nature of the data set: [3H]-mesulergine binding. As to conditions: test drug 10^−6M; displacement of [3H]-mesulergine (1 nM) in rat prefrontal cortex membranes; 30 nM spiperone present. How it is done: [^3H]-mesulergine Binding
The affinity of test drugs for the 5-HT2c binding site can be determined by assessing their ability to displace [^3H]-mesulergine in the rat prefrontal cortex. The method employed was similar to that of Pazos et al, 1984.
The membrane suspension (500 μl) was incubated with [^3H]-mesulergine (1 nM) in Tris hydrochloric acid buffer solution (pH 7.4) containing calcium chloride 4 mM and ascorbic acid 0.1% at 37° C. for 30 minutes. Non-specific binding was measured in the presence of mianserin (1 μM). 30 nM spiperone was used to prevent binding to 5-HT2A sites. Test drugs (10^−6M) were added in a volume of 100 μl. The total assay volume was 1000 μl. Incubation was stopped by rapid filtration using a Brandel cell harvester and radioactivity measured by scintillation counting.
In general terms: Loss of bound radioactivity is the signal in a displacement assay; it reports binding, not function.

Molecules are shown by their SMILES.

What is called inhibition is the change of the read-out against control, counted positive when it falls. In general, melting point refers to the temperature of the solid-liquid transition. In the case of `O=C(C/C=C/c1ccccc1)Nc1cccc(-n2ccnc2)c1` [Compound (a), (3E)-N-[3-(imidazol-1-yl)phenyl]-4-phenyl-3-butenamide], the melting point was in the range of 130 to 133 °C. The inhibition at 1 µM in data set [1] stood at 82%. As to `CS(=O)(=O)Nc1ccc(C(=N)Nc2cc(Cl)cc(NC(=O)/C=C/c3ccccc3Cl)c2)cc1` [Example 147, (2E)-N-[3-chloro-5-[imino(4-methylsulfonylaminobenzyl)amino]phenyl]-3-(2-chlorophenyl)-2-propenamide], the melting point lay within 158 to 160 °C. The same measure, in the same setting: in the case of `N=C(Nc1cc(Cl)cc(NC(=O)/C=C/c2ccccc2C(F)(F)F)c1)c1ccsc1` [Example 56, (2E)-N-[3-chloro-5-[[imino(3-thienyl)methyl]amino]phenyl]-3-[2-(trifluoromethyl)phenyl]-2-propenamide] it was 121 to 123 °C; in that of `COc1ccc(F)cc1C(=N)Nc1cc(Cl)cc(NC(=O)/C=C/c2ccccc2C(F)(F)F)c1` [Example 30, (2E)-N-[3-chloro-5-[[(5-fluoro-2-methoxyphenyl)(imino)methyl]amino]phenyl]-3-[2-(trifluoromethyl)phenyl]-2-propenamide], 213 to 214 °C.

The molecule `N=C(Nc1cccc(NC(=O)/C=C/c2ccccc2Cl)c1)c1ccccc1` [Example 54, (2E)-N-[3-(iminobenzylamino)phenyl]-3-(2-chlorophenyl)-2-propenamide] showed a melting point of 262 to 264 °C. On to `N=C(Nc1cccc(NC(=O)/C=C/c2ccc(Cl)cc2)c1)c1ccccc1` [Example 47, (2E)-N-[3-(iminobenzylamino)phenyl]-3-(4-chlorophenyl)-2-propenamide], for which the melting point is 109 to 110 °C. Take `N=C(Nc1ccc(F)c(NC(=O)/C=C/c2ccccc2Cl)c1)c1ccccc1` [Example 17, (2E)-N-[2-fluoro-5-(iminobenzylamino)phenyl]-3-(2-chlorophenyl)-2-propenamide]: the melting point was 189 to 191 °C. Molecule `O=C(C=Cc1ccccc1Cl)Nc1cccc(CNc2ccc3ccccc3n2)c1` [Example 50, N-[3-[(2-quinolylamino)methyl]phenyl]-3-(2-chlorophenyl)-2-propenamide] returned a melting point of 170 to 171 °C.

On to `Cc1ncccc1Oc1ccc(NC(=O)C=Cc2ccccc2Cl)cn1` [Example 45, N-[6-[(2-methyl-3-pyridyl)oxy]-3-pyridyl]-3-(2-chlorophenyl)-2-propenamide], for which the melting point was in the range of 187 to 189 °C.

In turn, `N=C(Nc1cccc(NC(=O)Cc2ccccc2)c1)c1ccccc1` [Example 1, N-[3-(iminobenzylamino)phenyl]phenylacetamide] registered a melting point of 213 to 214 °C. Still for that read-out and setting: in the case of `N#Cc1cc(NC(=N)c2ccccc2)cc(NC(=O)/C=C/c2ccccc2C(F)(F)F)c1` [Example 36, (2E)-N-[3-cyano-5-(iminobenzylamino)phenyl]-3-[2-(trifluoromethyl)phenyl]-2-propenamide] it was 181 to 182 °C. Same read-out and setting: in the case of `COc1ccc(F)cc1C(=N)Nc1cc(Cl)cc(NC(=O)/C=C/c2ccccc2Cl)c1` [Example 23, (2E)-N-[3-chloro-5-[[(5-fluoro-2-methoxyphenyl)(imino)methyl]amino]phenyl]-3-(2-chlorophenyl)-2-propenamide] it was 238 to 239 °C; in that of `COc1cccc(/C=C/C(=O)Nc2cccc(NC(=N)c3ccccc3)c2)c1` [Example 48, (2E)-N-[3(iminobenzylamino)phenyl]-3-(3-methoxyphenyl)-2-propenamide], 148 to 149 °C. `Cn1c(NCc2cccc(NC(=O)C=Cc3ccccc3Cl)c2)nc2ccccc21` [Example 43, N-[3-[[(1-methyl-1H-benzimidazol-2-yl)amino]methyl]phenyl]-3-(2-chlorophenyl)-2-propenamide] displayed a melting point of 188 to 191 °C.
